Test results from paper PMC9060145 (Skin Health and Disease, 2021).
pEC50, pIC50: −log10 of the molar value. Blank lines part the entries; values can stand above or below the compound they belong to.

How the values were obtained:
RARβ = target: T1, RARβ (Homo sapiens, UniProt P10826); experiment: Nuclear receptor profiling, luciferase reporter in recombinant HeLa cells; format: cell-based
T1 construct: expressed in transfected cells; host or cells: recombinant HeLa cell lines
T1 sequence (P10826 1-455): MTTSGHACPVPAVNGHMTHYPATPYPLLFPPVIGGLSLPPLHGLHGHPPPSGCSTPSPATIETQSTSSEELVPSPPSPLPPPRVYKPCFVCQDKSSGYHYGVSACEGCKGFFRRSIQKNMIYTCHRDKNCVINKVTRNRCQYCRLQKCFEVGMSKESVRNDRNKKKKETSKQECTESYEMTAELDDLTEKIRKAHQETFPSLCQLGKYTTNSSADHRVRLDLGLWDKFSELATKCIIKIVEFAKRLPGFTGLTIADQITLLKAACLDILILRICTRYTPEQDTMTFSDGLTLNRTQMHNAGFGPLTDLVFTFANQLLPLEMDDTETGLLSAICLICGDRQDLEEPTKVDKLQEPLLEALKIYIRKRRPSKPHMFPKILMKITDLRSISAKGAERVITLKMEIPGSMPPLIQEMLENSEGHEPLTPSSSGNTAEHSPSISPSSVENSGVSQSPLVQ
Method: (§1) Nuclear receptor profiling, excluding retinoid X receptor (RXR), was previously described in detail.[24] Briefly, profiling was done using the Steady‐Glo luciferase assay kit (Promega, E2550) in recombinant HeLa cell lines expressing the respective receptors. Compounds were treated at nine doses (n = 2/dose) from 0.00015–10 µM. Data were normalized to minimum and maximum controls and 4‐parameter logistic regression fitting (Figure S2) was performed in XLfit software (IDBS).

RARα = target: T2, RARα (Homo sapiens, UniProt P10276); experiment: as above; format: cell-based
T2 construct: expressed in transfected cells; host or cells: recombinant HeLa cell lines
T2 sequence (P10276 1-462): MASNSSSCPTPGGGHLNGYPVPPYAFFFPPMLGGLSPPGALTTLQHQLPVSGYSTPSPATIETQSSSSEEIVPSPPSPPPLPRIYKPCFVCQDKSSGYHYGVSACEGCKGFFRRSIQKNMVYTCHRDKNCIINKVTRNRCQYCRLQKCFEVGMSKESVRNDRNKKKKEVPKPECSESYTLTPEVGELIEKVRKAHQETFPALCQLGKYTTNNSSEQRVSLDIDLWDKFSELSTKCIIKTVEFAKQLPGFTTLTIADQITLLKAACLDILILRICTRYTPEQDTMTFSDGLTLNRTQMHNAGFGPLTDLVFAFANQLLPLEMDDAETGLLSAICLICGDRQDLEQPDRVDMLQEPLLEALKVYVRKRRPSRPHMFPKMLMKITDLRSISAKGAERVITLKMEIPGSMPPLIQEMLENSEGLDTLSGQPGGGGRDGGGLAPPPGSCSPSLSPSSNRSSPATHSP
Method: as §1

RARγ = target: T3, RARγ (Homo sapiens, UniProt P13631); experiment: as above; format: cell-based; details: IA = Inactive
T3 construct: expressed in transfected cells; host or cells: recombinant HeLa cell lines
T3 sequence (P13631 1-454): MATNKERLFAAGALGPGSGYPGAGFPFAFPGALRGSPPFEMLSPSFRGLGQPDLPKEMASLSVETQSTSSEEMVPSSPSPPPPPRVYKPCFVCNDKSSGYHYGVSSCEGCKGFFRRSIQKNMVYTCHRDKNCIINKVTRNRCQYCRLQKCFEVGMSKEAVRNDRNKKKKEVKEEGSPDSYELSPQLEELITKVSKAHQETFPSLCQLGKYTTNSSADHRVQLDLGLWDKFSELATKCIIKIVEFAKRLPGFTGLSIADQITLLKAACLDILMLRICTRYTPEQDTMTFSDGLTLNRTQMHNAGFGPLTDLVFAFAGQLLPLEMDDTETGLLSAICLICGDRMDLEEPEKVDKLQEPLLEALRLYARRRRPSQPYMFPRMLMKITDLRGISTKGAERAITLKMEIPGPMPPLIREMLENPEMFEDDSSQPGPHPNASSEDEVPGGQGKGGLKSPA
Method: as §1

CYP2C19 = target: T4, CYP2C19 (Homo sapiens, UniProt P33261); experiment: CYP450 inhibition assay, human liver microsomes; format: biochemical; details: substrate omeprazole
T4 construct: from tissue; host or cells: human liver microsomes (per the earlier reading and the cited method)

CYP2B6 = target: T5, CYP2B6 (Homo sapiens, UniProt P20813); experiment: CYP450 inhibition assay, human liver microsomes; format: biochemical
T5 construct: from tissue; host or cells: human liver microsomes (per the earlier reading and the cited method)
T5 sequence (P20813 1-491): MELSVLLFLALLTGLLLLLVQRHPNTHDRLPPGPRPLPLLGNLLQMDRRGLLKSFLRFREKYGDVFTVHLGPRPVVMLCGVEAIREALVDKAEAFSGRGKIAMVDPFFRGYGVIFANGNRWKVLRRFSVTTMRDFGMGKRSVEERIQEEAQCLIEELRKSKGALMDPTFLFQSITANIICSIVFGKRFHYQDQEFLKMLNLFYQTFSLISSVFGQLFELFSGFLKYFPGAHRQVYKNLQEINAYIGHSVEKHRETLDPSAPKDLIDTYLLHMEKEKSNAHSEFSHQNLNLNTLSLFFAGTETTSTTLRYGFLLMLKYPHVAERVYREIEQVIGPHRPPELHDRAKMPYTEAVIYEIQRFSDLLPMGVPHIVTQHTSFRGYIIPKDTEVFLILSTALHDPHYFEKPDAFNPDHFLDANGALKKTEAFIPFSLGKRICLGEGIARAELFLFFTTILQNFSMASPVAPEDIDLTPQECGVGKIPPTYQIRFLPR
Method: (§2) CYP450 inhibition assays (excluding CYP19 and 1 µM CYP2C8) were performed as previously described.[31] Substrate metabolite formation was measured by HPLC‐MS/MS. Percent of control activity was determined by comparing metabolite peak areas with and without test compound. Qualitative screening of CYP2C8 (1 µM) and CYP19 is described in detail in Supporting Information. Reference compound IC50 values were determined by non‐linear regression analysis using Hill equation curve fitting.

CYP19 = target: T6, CYP19 (Homo sapiens, UniProt P11511); experiment: Qualitative CYP19 screening, CYP19 Supersomes, HPLC-MS/MS; format: biochemical
T6 construct: purchased Corning (Woburn, MA)
T6 sequence (P11511 1-503): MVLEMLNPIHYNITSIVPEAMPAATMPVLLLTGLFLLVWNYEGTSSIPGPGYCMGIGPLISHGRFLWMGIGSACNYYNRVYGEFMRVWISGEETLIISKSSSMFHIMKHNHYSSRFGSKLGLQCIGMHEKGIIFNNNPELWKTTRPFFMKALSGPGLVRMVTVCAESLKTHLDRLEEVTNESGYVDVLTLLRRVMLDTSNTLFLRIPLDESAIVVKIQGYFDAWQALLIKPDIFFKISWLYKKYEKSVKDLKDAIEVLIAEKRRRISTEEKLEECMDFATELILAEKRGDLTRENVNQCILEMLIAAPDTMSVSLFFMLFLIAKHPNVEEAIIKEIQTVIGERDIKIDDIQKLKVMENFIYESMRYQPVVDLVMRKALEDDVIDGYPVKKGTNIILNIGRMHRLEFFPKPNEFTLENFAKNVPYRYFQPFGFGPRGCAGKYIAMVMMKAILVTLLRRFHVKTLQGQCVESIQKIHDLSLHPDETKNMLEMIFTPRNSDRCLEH
Method: as §2
In vitro CYP19 screening was carried out in triplicate using a modified HPLC-MS/MS protocol based on methodology provided by Admescope Ltd. DMSO stock solutions of test compounds, positive control liarozole, androstenedione substrate and solvent control were diluted with 100 mM phosphate buffer (pH 7.4) such that DMSO content in final assay conditions was 1% in a volume of 200 µL. Briefly, to a microfuge tube was added 1 µM substrate, 1 mM NAPDH, and 0.1-1 µM test compounds (final concentrations after enzyme addition) in phosphate buffer before pre-incubating for 2 min at 37 °C. CYP19/CYP450 reductase Supersomes™ enzyme (50 µL, 1.5 pmol/mL) was added to each tube, gently mixed, then incubated at 37 °C for 30 min. The reaction was quenched with an equal volume of acetonitrile containing cortisone internal standard (100 nM). […]

MR = target: T7, MR (Homo sapiens, UniProt P08235); experiment: Nuclear receptor profiling, luciferase reporter in recombinant HeLa cells; format: cell-based; details: IA = Inactive
T7 construct: expressed in transfected cells; host or cells: recombinant HeLa cell lines
T7 sequence (P08235 1-984): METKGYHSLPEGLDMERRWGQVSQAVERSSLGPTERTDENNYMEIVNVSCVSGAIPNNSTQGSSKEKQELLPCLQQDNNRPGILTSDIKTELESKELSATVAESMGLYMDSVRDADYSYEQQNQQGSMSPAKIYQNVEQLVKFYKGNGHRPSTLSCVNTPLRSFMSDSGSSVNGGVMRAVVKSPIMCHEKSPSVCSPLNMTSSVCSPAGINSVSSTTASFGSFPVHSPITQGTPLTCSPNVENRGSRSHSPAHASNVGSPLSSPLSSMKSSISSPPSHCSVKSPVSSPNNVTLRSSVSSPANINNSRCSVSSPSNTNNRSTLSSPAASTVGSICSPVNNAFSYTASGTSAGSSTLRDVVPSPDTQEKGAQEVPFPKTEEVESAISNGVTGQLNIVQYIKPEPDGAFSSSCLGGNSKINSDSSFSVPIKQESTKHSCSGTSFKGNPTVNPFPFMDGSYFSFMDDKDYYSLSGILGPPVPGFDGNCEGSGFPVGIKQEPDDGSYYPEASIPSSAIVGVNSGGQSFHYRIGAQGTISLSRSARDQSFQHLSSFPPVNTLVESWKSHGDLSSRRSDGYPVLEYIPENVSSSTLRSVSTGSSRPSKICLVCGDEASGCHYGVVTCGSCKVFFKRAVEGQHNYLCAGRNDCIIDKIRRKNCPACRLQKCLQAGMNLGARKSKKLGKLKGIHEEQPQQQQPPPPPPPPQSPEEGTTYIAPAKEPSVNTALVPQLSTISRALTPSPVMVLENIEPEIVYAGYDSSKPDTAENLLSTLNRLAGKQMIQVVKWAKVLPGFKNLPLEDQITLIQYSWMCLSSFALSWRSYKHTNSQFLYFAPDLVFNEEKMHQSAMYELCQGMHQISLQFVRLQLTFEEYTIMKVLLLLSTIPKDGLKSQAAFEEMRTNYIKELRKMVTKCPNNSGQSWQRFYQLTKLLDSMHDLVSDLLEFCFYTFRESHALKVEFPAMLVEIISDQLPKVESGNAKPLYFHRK
Method: as §1

LXRβ = target: T8, LXRβ (Homo sapiens, UniProt P55055); experiment: as above; format: cell-based
T8 construct: expressed in transfected cells; host or cells: recombinant HeLa cell lines
T8 sequence (P55055 1-460): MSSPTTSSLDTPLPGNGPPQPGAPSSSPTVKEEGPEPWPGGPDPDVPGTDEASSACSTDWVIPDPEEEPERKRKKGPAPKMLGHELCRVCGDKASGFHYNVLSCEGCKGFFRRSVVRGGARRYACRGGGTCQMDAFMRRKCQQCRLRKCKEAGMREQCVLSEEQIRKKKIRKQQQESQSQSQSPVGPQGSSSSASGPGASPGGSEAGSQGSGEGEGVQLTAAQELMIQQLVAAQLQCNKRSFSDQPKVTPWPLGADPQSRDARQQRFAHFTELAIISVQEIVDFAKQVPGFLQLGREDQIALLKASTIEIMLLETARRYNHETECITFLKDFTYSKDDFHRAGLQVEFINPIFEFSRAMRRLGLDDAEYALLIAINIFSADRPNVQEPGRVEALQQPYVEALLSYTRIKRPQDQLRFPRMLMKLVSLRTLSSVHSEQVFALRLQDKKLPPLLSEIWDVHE
Method: as §1

T4 sequence (P33261 whole entry): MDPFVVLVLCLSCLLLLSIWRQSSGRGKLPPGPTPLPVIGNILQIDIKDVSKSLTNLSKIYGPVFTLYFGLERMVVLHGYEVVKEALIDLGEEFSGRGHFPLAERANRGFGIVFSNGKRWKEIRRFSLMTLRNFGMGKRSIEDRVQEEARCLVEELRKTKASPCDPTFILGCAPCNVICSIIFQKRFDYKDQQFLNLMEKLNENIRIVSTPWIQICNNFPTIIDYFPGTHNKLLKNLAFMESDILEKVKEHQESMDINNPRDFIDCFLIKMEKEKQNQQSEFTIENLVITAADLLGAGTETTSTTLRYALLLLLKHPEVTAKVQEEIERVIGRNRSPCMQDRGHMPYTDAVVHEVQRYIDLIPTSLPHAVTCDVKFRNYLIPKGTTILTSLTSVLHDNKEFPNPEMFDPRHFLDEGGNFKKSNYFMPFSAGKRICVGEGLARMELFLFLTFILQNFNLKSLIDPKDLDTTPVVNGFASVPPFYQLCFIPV

pEC50 (RARβ): 8.49
pEC50 (RARα): 7.49
pEC50 (RARγ): 7.60
SMILES: CC1(C)CCSc2ccc(C#Cc3ccc(C(=O)O)cn3)cc21 [Tazarotenic acid]

nH (hill coefficient) (CYP2C19): 0.8
SMILES: CCN(CC)CC#CCOC(=O)C(O)(c1ccccc1)C1CCCCC1 (stereo not shown) [oxybutynin]

SMILES: COC(=O)[C@H](c1ccccc1Cl)N1CCc2sccc2C1 [clopidogrel]
pIC50 (CYP2B6): 6.43
nH (hill coefficient) (CYP2B6; substrate bupropion): 1.3

inhibition at 0.1 µM (CYP19; 0.1 µM compound, substrate androstenedione, calculated from decrease in metabolite formation, read-out: % Inhibition (reduction of CYP19 activity)): 61.1%
inhibition at 1 µM (CYP19; reference concentration 1000 nM, androstenedione 1000 nM, 30 min, 37°C): 83.8%
SMILES: Clc1cccc(C(c2ccc3[nH]cnc3c2)n2ccnc2)c1 (stereo not shown) [Liarozole]

pEC50 (MR): 9.40
SMILES: C[C@]12C[C@H](O)[C@H]3[C@@H](CCC4=CC(=O)CC[C@@]43C)[C@@H]1CC[C@@H]2C(=O)CO [Corticosterone]

pEC50 (LXRβ): 6.70
SMILES: O=C(O)Cc1cccc(OCCCN(Cc2cccc(C(F)(F)F)c2Cl)CC(c2ccccc2)c2ccccc2)c1 [GW3965]
